The values below come from US6406680B1, “X-ray contrast agents” (Nycomed Imaging AS, priority 1999, dated 2002).

Converted amounts (≈) assume the structure as drawn.

Series [1] can be described thus: Aqueous solubility at 20° C. The conditions noted are these: water. It counts as physicochemical.
In series [2] the test system is mice. The conditions noted are these: cited from earlier work.

The solubility is how much of the substance goes into solution per volume. A low value points to a poorly soluble substance. As for `OCC(I)=CI` [Compound 2, 2,3-Diiodo-2-propene-1-ol], the solubility in series [1] is 3.91 mg/mL (≈ 12.6 mM); in series [1] (Table 1), 0.391 mg/mL (≈ 1.26 mM).

On to `OCC(I)=C(I)I` [Compound 3, 2,3,3-Triiodo-2-propene-1-ol], for which the solubility in series [1] and in series [1] (Table 1) was 0.198 mg/mL (≈ 0.454 mM) throughout.

With `OCC(O)COCC(I)=CI` (centres unmarked) [Compound 5, 3-(2,3-Diiodo-2-propenyloxy)-propane-1,2-diol], the solubility in series [1] and in series [1] (Table 1) was 18.4 mg/mL (≈ 47.9 mM) throughout.

With `OCC(O)COCC(I)=C(I)I` (centres unmarked) [Compound 6, 3-(2,3,3-Triiodo-2-propenyloxy)-propane-1,2-diol], the solubility in series [1] and in series [1] (Table 1) was 0.5 mg/mL (≈ 0.981 mM) each time.

In the case of `OCCOCC(I)=C(I)COCCO` [Compound 9, 2,2′-[2,3-Diiodo-2-butene-1,4-diylbis(oxy)]-bis-ethanol], the solubility in series [1] and in series [1] (Table 1) was 7.2 mg/mL (≈ 16.8 mM) each time.

Turning to `OCC(I)=C(I)CO` [Compound 12, 2,3-Diiodo-2-butene-1,4-diol], the solubility in series [1] and in series [1] (Table 1) was 0.534 mg/mL (≈ 1.57 mM) each time.

Turning to `OCC(I)=C(I)COCC(O)CO` (centres unmarked) [Compound 13, 3-[(2,3-Diiodo-4-hydroxy-2-butenyl)oxy]-propane-1,2-diol], the solubility in series [1] is over 1.2 mg/mL; in series [1] (Table 1) it was over 1200 mg/mL.

As to `OCC(O)COCC(I)=C(I)COCC(O)CO` (centres unmarked) [Compound 14, 3,3′-[2,3-Diiodo-2-butene-1,4-diylbis(oxy)]-bis-propane-1,2-diol], the figures for the solubility in series [1] and in series [1] (Table 1) were over 1.2 mg/mL and over 1200 mg/mL, respectively.

Consider `OCC(I)=C(I)C(I)=C(I)CO` [Compound 16, 2,3,4,5-Tetraiodo-2,4-hexadiene-1,6-diol], for which the solubility in series [1] and in series [1] (Table 1) was 0.183 mg/mL (≈ 0.296 mM) each time.

With `CC(=O)N(CC(O)CO)c1c(I)c(C(=O)NCC(O)CO)c(I)c(C(=O)NCC(O)CO)c1I` (centres unmarked) [Iohexol, iohexol, reference compound], in series [2], the “toxicity (LD 50 in mice, intravenous)” value is 33700 mg/kg. For the same compound, the solubility in series [1] (Table 1) is over 1200 mg/mL.
